In the NIST ThermoML archive (doi:10.1016/j.jct.2014.08.020):
± gives the expanded uncertainty stated by the source.

Tests used:
[1] = molar enthalpy of vaporization or sublimation; conditions: 298.15 K; Liquid; Static calorimetry
[2] = molar heat capacity at constant pressure; conditions: 300.6 K; 101.33 kPa; Liquid; Drop calorimetry

| Compound | molar enthalpy [1] [kcal/mol] | molar heat capacity at constant pressure [2] [J/K/mol] |
| --- | --- | --- |
| CCCCn1ccnc1 [1-butylimidazole] | 15.3 ± 0.153 |  |
| CCn1ccnc1 [1-ethyl-1H-imidazole] | 13.8 ± 0.237 |  |
| CCCCCCCCn1ccnc1 [1-octylimidazole] | 19.4 ± 0.335 | 382.21 ± 23 |
